A short description of the data set: method code SF, from DOI: 10.1515/bc.2003.056, PMID: 12715901.
One may read the logP as the decadic logarithm of the partition coefficient of the neutral form, usually between octanol and water. A low value points to a more hydrophilic compound. `CCCOC(=O)C1(CC)CCC=[N+]1[O-]` (stereo unspecified) displayed a logP of -0.11.

In turn, `CC(C)OC(=O)C1(C)CCC=[N+]1[O-]` (stereo unspecified) displayed a logP of -0.7.

`CCC1(C(=O)OC(C)(C)C)CCC=[N+]1[O-]` (stereo unspecified): the logP turned out to be 0.18.

In the case of `CCCOC(=O)C1(CCC)CCC=[N+]1[O-]` (stereo unspecified), the logP is 0.42.

`CCCCOC(=O)C1(CC)CCC=[N+]1[O-]` (stereo unspecified) displayed a lipophilicity (logP) of 0.46.

In turn, `CCC(C)OC(=O)C1(CC)CCC=[N+]1[O-]` (stereo unspecified) came in with a logP of 0.28.

Compound `CCCC1(C(=O)OC(C)C)CCC=[N+]1[O-]` (stereo unspecified) showed a lipophilicity (logP) of 0.29.

In turn, `CCCC1(C(=O)OC(C)(C)C)CCC=[N+]1[O-]` (stereo unspecified) gave a logP of 0.43.

Take `CCC1(C(=O)OC(C)C)CCC=[N+]1[O-]` (stereo unspecified): the logP is -0.18.

Consider `CCOC(=O)C1(CC)CCC=[N+]1[O-]` (stereo unspecified), for which the log partition coefficient (logP) was -0.6.

Compound `CCCCOC(=O)C1(CCC)CCC=[N+]1[O-]` (stereo unspecified) gave a logP of 0.89.

The record behind these values is the SangsterLogP compilation.
